Experiments:
Melanocortin receptor 3 [1] = target: T1, Melanocortin receptor 3 (Homo sapiens, UniProt P41968); assay: Displacement of sCy5-MT-I from human MC3R stably expressed in human HEK293 cells incubated for 2 hrs by Cheng-Prusoff equation based FACS analysis; assay type: cell-based
[2] = target: T2, Melanocyte-stimulating hormone receptor (Homo sapiens, UniProt Q01726); assay: Agonist activity at human MC1R stably expressed in human Flp-In-293 cells assessed as cAMP accumulation incubated for 45 mins in presence of IBMX by Lance Ultra cAMP assay; assay type: functional, cell-based
Target sequence in this assay (Q01726 whole entry): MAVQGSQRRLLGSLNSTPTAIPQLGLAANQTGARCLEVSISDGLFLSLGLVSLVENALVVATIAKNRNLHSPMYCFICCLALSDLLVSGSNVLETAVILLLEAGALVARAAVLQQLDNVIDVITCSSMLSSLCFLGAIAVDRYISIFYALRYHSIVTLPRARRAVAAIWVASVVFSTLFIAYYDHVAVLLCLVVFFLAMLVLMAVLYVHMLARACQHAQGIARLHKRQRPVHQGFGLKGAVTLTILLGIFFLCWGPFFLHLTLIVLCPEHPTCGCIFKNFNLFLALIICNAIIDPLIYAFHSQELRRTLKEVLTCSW

[3] = target: T2, Melanocyte-stimulating hormone receptor; assay: Displacement of sCy5-MT-I from human MC1R stably expressed in human HEK293 cells incubated for 2 hrs by Cheng-Prusoff equation based FACS analysis; assay type: cell-based
Target sequence in this assay (Q01726 whole entry): as above

Melanocortin receptor 3 [4] = target: T1, Melanocortin receptor 3; assay: Agonist activity at human MC3R stably expressed in human Flp-In-293 cells assessed as cAMP accumulation incubated for 45 mins in presence of IBMX by Lance Ultra cAMP assay; assay type: functional, cell-based
Melanocortin receptor 5 [5] = target: T3, Melanocortin receptor 5 (Homo sapiens, UniProt P33032); assay: Agonist activity at human MC5R stably expressed in human Flp-In-293 cells assessed as cAMP accumulation at 1 uM incubated for 45 mins in presence of IBMX by Lance Ultra cAMP assay; assay type: functional, cell-based
Melanocortin receptor 5 [6] = target: T3, Melanocortin receptor 5; assay: Displacement of sCy5-MT-I from human MC5R stably expressed in human HEK293 cells incubated for 2 hrs by Cheng-Prusoff equation based FACS analysis; assay type: cell-based
Melanocortin receptor 4 [7] = target: T4, Melanocortin receptor 4 (Homo sapiens, UniProt P32245); assay: Displacement of sCy5-MT-I from human MC4R stably expressed in human HEK293 cells incubated for 2 hrs by Cheng-Prusoff equation based FACS analysis; assay type: cell-based
Melanocortin receptor 4 [8] = target: T4, Melanocortin receptor 4; assay: Agonist activity at human MC4R stably expressed in human Flp-In-293 cells assessed as cAMP accumulation incubated for 45 mins in presence of IBMX by Lance Ultra cAMP assay; assay type: functional, cell-based
Melanocortin receptor 3 [9] = target: T1, Melanocortin receptor 3; assay: Agonist activity at human MC3R stably expressed in human Flp-In-293 cells assessed as cAMP accumulation at 1 uM incubated for 45 mins in presence of IBMX by Lance Ultra cAMP assay; assay type: functional, cell-based; conditions: filed as agonist
[10] = target: T2, Melanocyte-stimulating hormone receptor; assay: Agonist activity at human MC1R stably expressed in human Flp-In-293 cells assessed as cAMP accumulation at 1 uM incubated for 45 mins in presence of IBMX by Lance Ultra cAMP assay; assay type: functional, cell-based; conditions: filed as agonist
Target sequence in this assay (Q01726 whole entry, looked up): as the sequence (Q01726 whole entry) above

Melanocortin receptor 5 [11] = target: T3, Melanocortin receptor 5; assay: Agonist activity at human MC5R stably expressed in human Flp-In-293 cells assessed as cAMP accumulation incubated for 45 mins in presence of IBMX by Lance Ultra cAMP assay; assay type: functional, cell-based

T4 sequence (P32245 whole entry): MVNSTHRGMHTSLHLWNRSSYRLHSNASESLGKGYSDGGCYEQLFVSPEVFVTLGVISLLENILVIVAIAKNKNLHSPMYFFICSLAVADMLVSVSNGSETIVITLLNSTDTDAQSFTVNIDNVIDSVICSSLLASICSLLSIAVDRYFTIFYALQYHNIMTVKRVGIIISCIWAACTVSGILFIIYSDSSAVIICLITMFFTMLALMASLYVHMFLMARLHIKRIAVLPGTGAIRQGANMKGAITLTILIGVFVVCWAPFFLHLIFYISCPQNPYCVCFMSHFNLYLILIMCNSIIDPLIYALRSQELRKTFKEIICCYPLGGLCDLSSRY
T3 sequence (P33032 whole entry): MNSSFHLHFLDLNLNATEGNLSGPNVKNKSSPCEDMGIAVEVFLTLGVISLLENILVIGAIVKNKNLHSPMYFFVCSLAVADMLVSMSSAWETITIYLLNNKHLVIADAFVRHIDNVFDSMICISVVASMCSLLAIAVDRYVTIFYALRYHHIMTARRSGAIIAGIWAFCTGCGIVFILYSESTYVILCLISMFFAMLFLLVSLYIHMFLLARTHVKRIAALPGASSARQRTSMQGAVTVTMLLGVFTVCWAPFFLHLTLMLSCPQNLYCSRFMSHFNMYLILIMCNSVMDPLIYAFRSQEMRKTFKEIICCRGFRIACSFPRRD
T1 sequence (P41968 whole entry): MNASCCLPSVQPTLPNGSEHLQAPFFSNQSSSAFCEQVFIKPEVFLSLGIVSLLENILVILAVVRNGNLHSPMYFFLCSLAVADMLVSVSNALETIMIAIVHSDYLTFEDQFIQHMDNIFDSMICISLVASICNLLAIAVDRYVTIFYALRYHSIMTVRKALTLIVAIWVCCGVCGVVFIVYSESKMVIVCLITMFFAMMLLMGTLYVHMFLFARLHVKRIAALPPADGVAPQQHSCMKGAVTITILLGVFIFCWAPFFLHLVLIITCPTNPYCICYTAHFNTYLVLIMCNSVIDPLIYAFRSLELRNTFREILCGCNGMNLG

| Compound | Ki (Melanocortin receptor 3 [1]) [nM] | EC50 ([2]; read-out: pEC50 (converted)) [nM] | Ki [3] [nM] | EC50 (Melanocortin receptor 3 [4]) [nM] | Activity (Melanocortin receptor 5 [5]) [%] | Ki (Melanocortin receptor 5 [6]) [nM] | Ki (Melanocortin receptor 4 [7]; read-out: pKi (converted)) [nM] | EC50 (Melanocortin receptor 4 [8]; read-out: pEC50 (converted)) [nM] | Activity (Melanocortin receptor 5 [5]; filed as agonist) [%] | Activity (Melanocortin receptor 3 [9]) [%] | Activity [10] [%] | EC50 ([2]; read-out: EC50) [nM] | EC50 (Melanocortin receptor 4 [8]; read-out: EC50) [nM] | EC50 (Melanocortin receptor 5 [11]) [nM] | Ki (Melanocortin receptor 4 [7]; read-out: Ki) [nM] |
| --- | --- | --- | --- | --- | --- | --- | --- | --- | --- | --- | --- | --- | --- | --- | --- |
| C[C@@H]1NC(=O)c2cc([N+](=O)[O-])ccc2SC[C@@H](C(N)=O)NC(=O)[C@H](Cc2c[nH]c3ccccc23)NC(=O)[C@H](CCCNC(=N)N)NC(=O)[C@@H](Cc2ccccc2)NC(=O)[C@H](Cc2c[nH]cn2)NC1=O | 513 | 63.1 | 56.2 | 1260 | 11 | > 1000 | 3.02 | 20 |  |  |  |  |  |  |  |
| C[C@H]1NC(=O)c2cc(C(=N)N)ccc2SC[C@@H](C(N)=O)NC(=O)[C@H](Cc2c[nH]c3ccccc23)NC(=O)[C@H](CCCNC(=N)N)NC(=O)[C@@H](Cc2ccccc2)NC(=O)[C@H](Cc2c[nH]cn2)NC1=O | 148 | 4.79 | 3.55 | 91.2 |  | > 1000 | 0.162 | 0.275 | 41 |  |  |  |  |  |  |
| NC(=O)[C@@H]1CSc2ccc([N+](=O)[O-])cc2C(=O)N[C@@H](Cc2cnc[nH]2)C(=O)N[C@H](Cc2ccccc2)C(=O)N[C@@H](CCCN=C(N)N)C(=O)N[C@@H](Cc2c[nH]c3ccccc23)C(=O)N1 | 316 | 1260 | 126 | 5010 |  | > 1000 | 1.58 | 501 |  |  |  |  |  |  |  |
| C#Cc1ccc2c(c1)C(=O)N[C@@H](Cc1c[nH]cn1)C(=O)N[C@H](Cc1ccccc1)C(=O)N[C@@H](CCCNC(=N)N)C(=O)N[C@@H](Cc1c[nH]c3ccccc13)C(=O)N[C@H](C(N)=O)CS2 | 741 | 34.7 | 64.6 | 316 | 14 | > 1000 | 0.234 | 89.1 |  |  |  |  |  |  |  |
| C[C@@H]1NC(=O)[C@H](Cc2c[nH]c3ccccc23)NC(=O)[C@H](CCCNC(=N)N)NC(=O)[C@@H](Cc2ccccc2)NC(=O)[C@H](Cc2c[nH]cn2)NC(=O)c2cc([N+](=O)[O-])ccc2SC[C@@H](C(N)=O)NC1=O | 7.94 | 9.77 | 1.26 | 31.6 | 5 | > 1000 | 1.26 | 6.31 |  |  |  |  |  |  |  |
| N#Cc1ccc2c(c1)C(=O)N[C@@H](Cc1c[nH]cn1)C(=O)N[C@H](Cc1ccccc1)C(=O)N[C@@H](CCCNC(=N)N)C(=O)N[C@@H](Cc1c[nH]c3ccccc13)C(=O)N[C@H](C(N)=O)CS2 | 661 |  | 158 |  | 0 | > 1000 | 0.794 | 63.1 |  | 44 | 58 |  |  |  |  |
| C[C@H]1NC(=O)[C@H](Cc2c[nH]c3ccccc23)NC(=O)[C@H](CCCNC(=N)N)NC(=O)[C@@H](Cc2ccccc2)NC(=O)[C@H](Cc2c[nH]cn2)NC(=O)c2cc([N+](=O)[O-])ccc2SC[C@@H](C(N)=O)NC1=O | 437 | 33.9 | 79.4 | 7.94 | 1 | > 1000 | 0.871 | 5.01 |  |  |  |  |  |  |  |
| C[C@H]1NC(=O)c2cc(C#N)ccc2SC[C@@H](C(N)=O)NC(=O)[C@H](Cc2c[nH]c3ccccc23)NC(=O)[C@H](CCCNC(=N)N)NC(=O)[C@@H](Cc2ccccc2)NC(=O)[C@H](Cc2c[nH]cn2)NC1=O | 263 | 2.69 | 3.8 | 39.8 | 34 | > 1000 | 0.141 | 0.501 |  |  |  |  |  |  |  |
| C[C@@H]1NC(=O)c2cc(NC(=S)Nc3ccc4c(c3)C(=O)OC43c4ccc(O)cc4Oc4cc(O)ccc43)ccc2SC[C@@H](C(N)=O)NC(=O)[C@H](Cc2c[nH]c3ccccc23)NC(=O)[C@H](CCCNC(=N)N)NC(=O)[C@@H](Cc2ccccc2)NC(=O)[C@H](Cc2c[nH]cn2)NC1=O |  | 20.9 |  |  |  |  |  |  | 64 | 73 |  | 24 | 0.98 |  |  |
| C#Cc1ccc2c(c1)C(=O)N[C@H](C)C(=O)N[C@@H](Cc1c[nH]cn1)C(=O)N[C@H](Cc1ccccc1)C(=O)N[C@@H](CCCNC(=N)N)C(=O)N[C@@H](Cc1c[nH]c3ccccc13)C(=O)N[C@H](C(N)=O)CS2 | 132 | 2.24 | 3.39 | 34.7 |  | > 1000 | 0.457 | 0.447 |  |  |  |  |  | 372 |  |
| C[C@H]1NC(=O)c2cc(N)ccc2SC[C@@H](C(N)=O)NC(=O)[C@H](Cc2c[nH]c3ccccc23)NC(=O)[C@H](CCCNC(=N)N)NC(=O)[C@@H](Cc2ccccc2)NC(=O)[C@H](Cc2c[nH]cn2)NC1=O | 97.7 | 10 | 5.01 | 50.1 | 17 | > 1000 | 0.148 | 1.58 |  |  |  |  |  |  |  |
| N=C(N)NCCC[C@@H]1NC(=O)[C@@H](Cc2ccccc2)NC(=O)[C@H](Cc2cnc[nH]2)NC(=O)c2cc([N+](=O)[O-])ccc2SC[C@@H](C(N)=O)NC(=O)[C@H](Cc2c[nH]c3ccccc23)NC1=O |  |  |  |  | 3 |  |  |  |  |  |  |  |  |  |  |
| N=C(N)NCCC[C@@H]1NC(=O)[C@@H](Cc2ccccc2)NC(=O)[C@H](Cc2c[nH]cn2)NC(=O)c2cc(N)ccc2SC[C@@H](C(N)=O)NC(=O)[C@H](Cc2c[nH]c3ccccc23)NC1=O | 813 | 50.1 | 269 |  |  | > 1000 | 0.331 | 316 | 60 | 42 |  |  |  |  |  |
| C[C@@H]1NC(=O)c2cc(-c3cn([C@@H]4O[C@H](CO)[C@@H](O)[C@H](O)[C@H]4O)nn3)ccc2SC[C@@H](C(N)=O)NC(=O)[C@H](Cc2c[nH]c3ccccc23)NC(=O)[C@H](CCCNC(=N)N)NC(=O)[C@@H](Cc2ccccc2)NC(=O)[C@H](Cc2c[nH]cn2)NC1=O | 174 | 16.6 | 2.51 | 63.1 |  | > 1000 |  | 0.135 |  |  |  |  |  | 295 | 0.06 |
| C[C@H]1NC(=O)c2cc([N+](=O)[O-])ccc2SC[C@@H](C(N)=O)NC(=O)[C@H](Cc2c[nH]c3ccccc23)NC(=O)[C@H](CCCNC(=N)N)NC(=O)[C@@H](Cc2ccccc2)NC(=O)[C@H](Cc2c[nH]cn2)NC1=O | 79.4 | 1.58 | 1.12 | 200 | 15 | > 1000 | 0.102 | 1 |  |  |  |  |  |  |  |

From ChEMBL document CHEMBL5316346, “Targeting Melanocortin Receptors Using SNAr-Type Macrocyclization: A Doubly Orthogonal Route to Cyclic Peptide Conjugates” (J Med Chem, 2023)
